# Reference: PMC9150124, “Design of a Potent, Selective, and Brain-Penetrant Inhibitor of Wnt-Deactivating Enzyme Notum by Optimization of a Crystallographic Fragment Hit” (Journal of Medicinal Chemistry, 2022)
# Columns and labels:
# Assay in all cases: SelectScreen kinase profiling, SSBK LanthaScreen Binding SP Technology
# [1] = molecular target: kinase named in conditions (Homo sapiens, UniProt P10721, T670I/V559D); conditions: KIT V559D T670I, 10 μM
# Experimental: (§1) Kinase selectivity screening was performed by Thermo Fisher Scientific (Paisley, U.K.) in their SelectScreen Biochemical Kinase Profiling Service. Assay information and data are presented in the Supporting Information.
# (§2) Kinase selectivity screening was performed by ThermoFisher Scientific (Paisley, U.K.) in their SelectScreenTM
# (§3) Biochemical Kinase Profiling service .
# (§4) Illustration reproduced courtesy of Cell Signaling technology, Inc.
# (§5) (B) Illustration of phylogenetic tree of kinases screened.
# [2] = molecular target: kinase named in conditions (Homo sapiens, UniProt Q08345); conditions: DDR1, 10 μM
# Experimental: as §1, §2, §3, §4, §5
# [3] = molecular target: kinase named in conditions (Homo sapiens, UniProt Q9UM73, F1174L); conditions: ALK F1174L, 10 μM
# Experimental: as §1, §2, §3, §4, §5
# [4] = molecular target: kinase named in conditions (Homo sapiens, UniProt Q9Y2H1); conditions: STK38L (NDR2), 10 μM
# Experimental: as §1, §2, §3, §4, §5
# [5] = molecular target: kinase named in conditions (Homo sapiens, UniProt P10721, D816V); conditions: KIT D816V, 10 μM
# Experimental: as §1, §2, §3, §4, §5
# [6] = molecular target: kinase named in conditions (Homo sapiens, UniProt Q96RR4); conditions: CAMKK2 (CaMKK beta), 10 μM
# Experimental: as §1, §2, §3, §4, §5
# [7] = molecular target: kinase named in conditions (Homo sapiens, UniProt Q9Y2U5); conditions: MAP3K2 (MEKK2), 10 μM
# Experimental: as §1, §2, §3, §4, §5
# [8] = molecular target: kinase named in conditions (Homo sapiens, UniProt P10721, V654A); conditions: KIT V654A, 10 μM
# Experimental: as §1, §2, §3, §4, §5
# [9] = molecular target: kinase named in conditions (Homo sapiens, UniProt Q9UF33); conditions: EPHA6, 10 μM
# Experimental: as §1, §2, §3, §4, §5
# [10] = molecular target: kinase named in conditions (Homo sapiens, UniProt Q9UEE5); conditions: STK17A (DRAK1), 10 μM
# Experimental: as §1, §2, §3, §4, §5
# [11] = molecular target: kinase named in conditions (Homo sapiens, UniProt Q8N5S9); conditions: CAMKK1 (CAMKKA), 10 μM
# Experimental: as §1, §2, §3, §4, §5
# [12] = molecular target: kinase named in conditions (Homo sapiens, UniProt Q7L7X3); conditions: TAOK1, 10 μM
# Experimental: as §1, §2, §3, §4, §5
# [13] = molecular target: kinase named in conditions (Homo sapiens, UniProt P37023); conditions: ACVRL1 (ALK1), 10 μM
# Experimental: as §1, §2, §3, §4, §5
# [14] = molecular target: kinase named in conditions (Homo sapiens, UniProt P22612); conditions: PRKACG (PRKAC gamma), 10 μM
# Experimental: as §1, §2, §3, §4, §5
# [15] = molecular target: kinase named in conditions (Homo sapiens, UniProt P45985); conditions: MAP2K4 (MEK4), 10 μM
# Experimental: as §1, §2, §3, §4, §5
# [16] = molecular target: kinase named in conditions (Homo sapiens, UniProt Q16832, N456S); conditions: DDR2 N456S, 10 μM
# Experimental: as §1, §2, §3, §4, §5
# [17] = molecular target: kinase named in conditions (Homo sapiens, UniProt Q00536); conditions: CDK16 (PCTK1)/cyclin Y, 10 μM
# Experimental: as §1, §2, §3, §4, §5
# [18] = molecular target: kinase named in conditions (Homo sapiens, UniProt Q32MK0); conditions: MLCK (MLCK2), 10 μM
# Experimental: as §1, §2, §3, §4, §5
# [19] = molecular target: kinase named in conditions (Homo sapiens, UniProt O75385); conditions: ULK1, 10 μM
# Chain of kinase named in conditions (Homo sapiens, UniProt O75385) (O75385 whole entry): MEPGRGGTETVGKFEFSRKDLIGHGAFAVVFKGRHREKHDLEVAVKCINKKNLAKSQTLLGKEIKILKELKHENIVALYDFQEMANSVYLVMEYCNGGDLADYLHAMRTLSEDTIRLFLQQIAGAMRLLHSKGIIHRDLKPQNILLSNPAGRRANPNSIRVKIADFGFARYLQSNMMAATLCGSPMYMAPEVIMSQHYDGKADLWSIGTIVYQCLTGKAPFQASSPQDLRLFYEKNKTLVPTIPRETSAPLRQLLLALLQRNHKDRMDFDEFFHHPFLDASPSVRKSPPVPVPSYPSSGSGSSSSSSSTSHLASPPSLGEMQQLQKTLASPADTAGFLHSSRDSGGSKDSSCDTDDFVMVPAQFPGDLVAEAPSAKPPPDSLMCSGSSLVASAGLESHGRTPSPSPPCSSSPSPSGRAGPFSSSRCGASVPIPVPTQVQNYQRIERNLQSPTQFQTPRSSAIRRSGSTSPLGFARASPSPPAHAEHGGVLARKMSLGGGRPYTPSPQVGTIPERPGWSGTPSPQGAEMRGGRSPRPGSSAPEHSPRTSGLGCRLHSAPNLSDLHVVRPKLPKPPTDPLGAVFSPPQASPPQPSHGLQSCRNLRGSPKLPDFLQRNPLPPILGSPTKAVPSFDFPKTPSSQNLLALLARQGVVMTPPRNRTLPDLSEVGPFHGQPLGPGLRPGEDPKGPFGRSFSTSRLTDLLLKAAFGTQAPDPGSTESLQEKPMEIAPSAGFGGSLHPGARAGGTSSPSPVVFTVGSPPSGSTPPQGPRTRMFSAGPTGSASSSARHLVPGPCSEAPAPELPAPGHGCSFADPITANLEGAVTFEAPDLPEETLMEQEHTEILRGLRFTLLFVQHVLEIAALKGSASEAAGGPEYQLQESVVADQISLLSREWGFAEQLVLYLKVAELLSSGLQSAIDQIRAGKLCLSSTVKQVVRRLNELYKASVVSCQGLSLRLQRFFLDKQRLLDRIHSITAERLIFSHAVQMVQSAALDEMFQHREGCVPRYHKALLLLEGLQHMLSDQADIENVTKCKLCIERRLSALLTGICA
# Experimental: as §1, §2, §3, §4, §5
# [20] = molecular target: kinase named in conditions (Homo sapiens, UniProt P52564); conditions: MAP2K6 (MKK6), 10 μM
# Chain of kinase named in conditions (Homo sapiens, UniProt P52564) (P52564 whole entry): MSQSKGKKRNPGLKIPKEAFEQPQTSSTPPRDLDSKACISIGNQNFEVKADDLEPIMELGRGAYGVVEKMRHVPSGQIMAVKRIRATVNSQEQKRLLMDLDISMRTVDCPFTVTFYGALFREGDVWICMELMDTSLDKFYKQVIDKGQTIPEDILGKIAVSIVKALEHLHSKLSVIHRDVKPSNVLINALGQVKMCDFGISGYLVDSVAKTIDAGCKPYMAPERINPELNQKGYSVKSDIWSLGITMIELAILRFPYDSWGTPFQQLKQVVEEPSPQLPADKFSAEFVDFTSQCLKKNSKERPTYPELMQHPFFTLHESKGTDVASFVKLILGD
# Experimental: as §1, §2, §3, §4, §5
# [21] = molecular target: kinase named in conditions (Homo sapiens, UniProt P11362, V561M); conditions: FGFR1 V561M, 10 μM
# Chain of kinase named in conditions (Homo sapiens, UniProt P11362, V561M) (P11362 22-822 V561M): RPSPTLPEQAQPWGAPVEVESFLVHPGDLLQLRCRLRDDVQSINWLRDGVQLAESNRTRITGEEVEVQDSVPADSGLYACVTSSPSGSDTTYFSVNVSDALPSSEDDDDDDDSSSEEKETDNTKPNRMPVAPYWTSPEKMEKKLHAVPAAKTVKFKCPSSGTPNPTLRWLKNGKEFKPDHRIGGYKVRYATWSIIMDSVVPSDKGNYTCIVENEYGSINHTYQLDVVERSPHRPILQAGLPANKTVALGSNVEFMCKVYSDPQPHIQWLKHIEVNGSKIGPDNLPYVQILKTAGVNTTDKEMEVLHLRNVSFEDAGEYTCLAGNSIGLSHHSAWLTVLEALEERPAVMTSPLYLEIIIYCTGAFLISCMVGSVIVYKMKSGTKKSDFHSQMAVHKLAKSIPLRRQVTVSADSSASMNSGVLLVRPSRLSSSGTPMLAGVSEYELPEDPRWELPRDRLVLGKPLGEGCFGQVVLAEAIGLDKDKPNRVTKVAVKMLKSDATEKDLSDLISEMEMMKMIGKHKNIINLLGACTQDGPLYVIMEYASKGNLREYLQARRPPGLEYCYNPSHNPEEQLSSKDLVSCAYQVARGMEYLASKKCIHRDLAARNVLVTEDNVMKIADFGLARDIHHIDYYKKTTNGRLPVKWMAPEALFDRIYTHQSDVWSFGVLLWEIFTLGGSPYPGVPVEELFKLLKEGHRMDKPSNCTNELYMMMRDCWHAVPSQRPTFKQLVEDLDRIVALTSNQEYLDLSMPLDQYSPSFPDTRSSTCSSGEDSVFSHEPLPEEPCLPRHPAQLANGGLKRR
# Experimental: as §1, §2, §3, §4, §5
# [22] = molecular target: kinase named in conditions (Homo sapiens, UniProt Q99558); conditions: MAP3K14 (NIK), 10 μM
# Experimental: as §1, §2, §3, §4, §5
# [23] = molecular target: kinase named in conditions (Homo sapiens, UniProt P24941)
# Experimental: as §1, §2, §3, §4, §5
# [24] = molecular target: kinase named in conditions (Homo sapiens, UniProt Q13163); conditions: MAP2K5 (MEK5), 10 μM
# Experimental: as §1, §2, §3, §4, §5
# [25] = molecular target: kinase named in conditions (Homo sapiens, UniProt Q13705); conditions: ACVR2B, 10 μM
# Experimental: as §1, §2, §3, §4, §5
# [26] = molecular target: kinase named in conditions (Homo sapiens, UniProt O94921); conditions: CDK14 (PFTK1)/cyclin Y, 10 μM
# Chain of kinase named in conditions (Homo sapiens, UniProt O94921) (O94921 whole entry): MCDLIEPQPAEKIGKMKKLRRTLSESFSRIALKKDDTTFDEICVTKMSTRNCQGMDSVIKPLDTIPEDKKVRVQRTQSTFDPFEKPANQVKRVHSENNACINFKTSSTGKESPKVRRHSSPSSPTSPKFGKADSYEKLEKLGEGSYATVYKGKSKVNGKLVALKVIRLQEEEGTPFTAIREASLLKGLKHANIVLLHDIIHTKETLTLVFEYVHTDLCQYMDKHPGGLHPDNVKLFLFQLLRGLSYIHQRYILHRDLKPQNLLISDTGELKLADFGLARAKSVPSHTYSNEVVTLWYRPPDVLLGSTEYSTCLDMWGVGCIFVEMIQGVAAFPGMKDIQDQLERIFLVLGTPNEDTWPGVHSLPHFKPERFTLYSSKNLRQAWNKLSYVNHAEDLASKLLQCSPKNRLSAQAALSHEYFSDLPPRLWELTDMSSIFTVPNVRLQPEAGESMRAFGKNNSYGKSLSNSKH
# Experimental: as §1, §2, §3, §4, §5
# [27] = molecular target: kinase named in conditions (Homo sapiens, UniProt P52564, S207E/T211E); conditions: MAP2K6 (MKK6) S207E T211E, 10 μM
# Experimental: as §1, §2, §3, §4, §5
# [28] = molecular target: kinase named in conditions (Homo sapiens, UniProt P45984); conditions: MAPK9 (JNK2), 10 μM
# Chain of kinase named in conditions (Homo sapiens, UniProt P45984) (P45984 whole entry): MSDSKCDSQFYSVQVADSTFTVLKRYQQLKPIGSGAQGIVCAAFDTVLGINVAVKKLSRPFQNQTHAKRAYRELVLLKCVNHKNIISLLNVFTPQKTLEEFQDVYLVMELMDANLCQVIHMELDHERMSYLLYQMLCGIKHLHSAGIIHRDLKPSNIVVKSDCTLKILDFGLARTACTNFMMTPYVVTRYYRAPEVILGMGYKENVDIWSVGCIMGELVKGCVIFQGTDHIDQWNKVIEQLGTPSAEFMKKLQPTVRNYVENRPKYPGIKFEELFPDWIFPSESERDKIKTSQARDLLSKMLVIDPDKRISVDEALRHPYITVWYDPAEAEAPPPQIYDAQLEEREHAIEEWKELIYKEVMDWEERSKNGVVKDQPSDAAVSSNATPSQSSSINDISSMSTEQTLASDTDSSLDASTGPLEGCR
# Experimental: as §1, §2, §3, §4, §5
# [29] = system: kinase named in conditions
# Experimental: as §1, §2, §3, §4, §5
# [30] = molecular target: kinase named in conditions (Homo sapiens, UniProt Q6PHR2); conditions: ULK3, 10 μM
# Experimental: as §1, §2, §3, §4, §5
# [31] = molecular target: kinase named in conditions (Homo sapiens, UniProt O00238); conditions: BMPR1B (ALK6), 10 μM
# Experimental: as §1, §2, §3, §4, §5
# [32] = molecular target: kinase named in conditions (Homo sapiens, UniProt Q76MJ5); conditions: ERN2, 10 μM
# Chain of kinase named in conditions (Homo sapiens, UniProt Q76MJ5) (Q76MJ5 35-926): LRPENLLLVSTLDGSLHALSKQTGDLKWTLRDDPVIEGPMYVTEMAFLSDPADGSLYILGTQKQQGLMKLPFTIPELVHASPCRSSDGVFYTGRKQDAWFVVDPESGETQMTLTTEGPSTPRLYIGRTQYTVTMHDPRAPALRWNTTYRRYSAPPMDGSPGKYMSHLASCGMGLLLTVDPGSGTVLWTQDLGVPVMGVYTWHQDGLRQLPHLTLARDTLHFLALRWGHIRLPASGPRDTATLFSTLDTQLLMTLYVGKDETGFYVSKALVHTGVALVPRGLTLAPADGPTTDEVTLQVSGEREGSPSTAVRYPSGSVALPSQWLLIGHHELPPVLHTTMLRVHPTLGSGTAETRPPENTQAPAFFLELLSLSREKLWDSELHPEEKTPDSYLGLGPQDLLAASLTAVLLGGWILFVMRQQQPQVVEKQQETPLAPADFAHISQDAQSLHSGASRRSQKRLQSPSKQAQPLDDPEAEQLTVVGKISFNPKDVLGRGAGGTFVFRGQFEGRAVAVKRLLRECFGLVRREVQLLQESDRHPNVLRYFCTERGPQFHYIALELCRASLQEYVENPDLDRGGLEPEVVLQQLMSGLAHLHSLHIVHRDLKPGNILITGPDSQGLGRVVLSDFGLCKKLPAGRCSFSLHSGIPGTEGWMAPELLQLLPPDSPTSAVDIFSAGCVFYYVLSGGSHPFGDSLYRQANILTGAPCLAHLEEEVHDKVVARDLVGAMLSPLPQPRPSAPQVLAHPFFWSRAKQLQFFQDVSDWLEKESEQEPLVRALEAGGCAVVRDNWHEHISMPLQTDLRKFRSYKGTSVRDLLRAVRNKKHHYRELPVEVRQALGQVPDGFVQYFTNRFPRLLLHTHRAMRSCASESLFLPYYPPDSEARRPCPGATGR
# Experimental: as §1, §2, §3, §4, §5
# [33] = molecular target: kinase named in conditions (Homo sapiens, UniProt Q02763, Y1108F); conditions: TEK (TIE2) Y1108F, 10 μM
# Chain of kinase named in conditions (Homo sapiens, UniProt Q02763, Y1108F) (Q02763 23-1124 Y1108F): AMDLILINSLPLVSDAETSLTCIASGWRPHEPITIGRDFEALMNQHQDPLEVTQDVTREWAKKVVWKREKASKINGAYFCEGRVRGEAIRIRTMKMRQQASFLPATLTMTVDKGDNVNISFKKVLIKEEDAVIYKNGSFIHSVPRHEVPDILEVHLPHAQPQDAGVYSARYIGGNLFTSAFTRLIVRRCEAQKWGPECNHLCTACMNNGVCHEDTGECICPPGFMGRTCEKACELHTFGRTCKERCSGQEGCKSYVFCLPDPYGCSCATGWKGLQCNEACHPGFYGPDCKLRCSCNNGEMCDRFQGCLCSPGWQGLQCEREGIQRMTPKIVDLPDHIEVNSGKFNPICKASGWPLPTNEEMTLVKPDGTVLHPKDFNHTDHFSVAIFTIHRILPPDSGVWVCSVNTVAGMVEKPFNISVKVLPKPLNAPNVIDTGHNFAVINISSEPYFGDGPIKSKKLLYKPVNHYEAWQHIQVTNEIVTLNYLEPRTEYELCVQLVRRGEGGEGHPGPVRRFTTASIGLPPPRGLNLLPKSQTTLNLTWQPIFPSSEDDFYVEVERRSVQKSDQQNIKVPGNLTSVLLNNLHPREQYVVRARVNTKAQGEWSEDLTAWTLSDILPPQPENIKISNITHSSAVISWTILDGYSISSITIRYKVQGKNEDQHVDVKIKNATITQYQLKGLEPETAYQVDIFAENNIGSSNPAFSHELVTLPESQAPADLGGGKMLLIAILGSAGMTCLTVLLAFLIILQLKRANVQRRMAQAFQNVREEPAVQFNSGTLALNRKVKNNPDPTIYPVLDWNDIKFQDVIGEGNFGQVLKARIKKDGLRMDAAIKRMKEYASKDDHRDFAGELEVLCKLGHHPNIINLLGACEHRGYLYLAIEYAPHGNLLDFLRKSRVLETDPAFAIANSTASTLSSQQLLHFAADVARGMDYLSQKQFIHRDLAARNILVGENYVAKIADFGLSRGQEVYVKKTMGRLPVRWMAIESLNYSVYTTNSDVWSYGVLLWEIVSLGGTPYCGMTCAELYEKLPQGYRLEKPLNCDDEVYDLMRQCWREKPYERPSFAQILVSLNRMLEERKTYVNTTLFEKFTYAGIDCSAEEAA
# Experimental: as §1, §2, §3, §4, §5
smiles,measurement,setting,value
"FC(F)(F)c1c(Cl)ccc(-n2ccnn2)c1Cl [8l, 1-(2,4-Dichloro-3-(trifluoromethyl)phenyl)-1H-1,2,3-triazole]",inhibition at 10 µM,[1],-3%
same,inhibition at 10 µM,[2],0%
same,inhibition at 10 µM,[3],1%
same,inhibition at 10 µM,[4],15%
same,inhibition at 10 µM,[5],26%
same,inhibition at 10 µM,[6],-1%
same,inhibition at 10 µM,[7],11%
same,inhibition at 10 µM,[8],14%
same,inhibition at 10 µM,[9],1%
same,inhibition at 10 µM,[10],13%
same,inhibition at 10 µM,[11],-3%
same,inhibition at 10 µM,[12],0%
same,inhibition at 10 µM,[13],12%
same,inhibition at 10 µM,[14],6%
same,inhibition at 10 µM,[15],-2%
same,inhibition at 10 µM,[16],26%
same,inhibition at 10 µM,[17],8%
same,inhibition at 10 µM,[18],-3%
same,inhibition at 10 µM,[19],-2%
same,inhibition at 10 µM,[20],2%
same,inhibition at 10 µM,[21],4%
same,inhibition at 10 µM,[22],16%
same,inhibition at 10 µM,"[23]; CDK2/cyclin A1, 10 μM",3%
same,inhibition at 10 µM,"[23]; CDK2/cyclin E1, 10 μM",-4%
same,inhibition at 10 µM,"[23]; CDK2/cyclin O, 10 μM",7%
same,inhibition at 10 µM,[24],-6%
same,inhibition at 10 µM,[25],1%
same,inhibition at 10 µM,[26],43%
same,inhibition at 10 µM,[27],11%
same,inhibition at 10 µM,[28],-5%
same,% Inhibition mean,"[29]; ALK T1151_L1152insT, 10 μM",3%
same,% Inhibition mean,"[29]; EGFR (ErbB1) d746-750, 10 μM",2%
same,% Inhibition mean,"[29]; EGFR (ErbB1) d747-749 A750P, 10 μM",-6%
same,% Inhibition mean,"[29]; FLT3 ITD, 10 μM",-15%
same,inhibition at 10 µM,[30],-4%
same,inhibition at 10 µM,[31],0%
same,inhibition at 10 µM,[32],9%
same,inhibition at 10 µM,[33],-9%
